Assay results: patent publication US5905187A (priority 1997, dated 1999)
Entries after “also recorded” stand apart in the source; their conditions may differ. No end group written: not given here.

How the values were obtained:
Format in all cases: cell-based
[1] = system: Fusarium graminearum
[2] = system: Sclerotinia sclerotiorum
[3] = system: Sclerotinia trifoliorum
[4] = system: Fusarium moniliforme
[5] = system: Aspergillus flavus
[6] = system: Alternaria longipes
[7] = system: plant pathogenic fungi

## RSGRGECRRQCLRRHEGQPWETQECMRRCRRRGG (cysteine pairing not given here) [CMIII]
[1]; at a concentration of 112 μg/mL
  inhibition of Fusarium graminearum: inhibitory activity
[1]; other studies
  concentration down to which Fusarium graminearum was noticeably inhibited: 3.8 µM
[2]
  concentrations at which inhibition of S. sclerotiorum was not observed: below 30.4 micromolar
  inhibition of Sclerotinia isolates (S. sclerotiorum): inhibited strongly
  inhibition of Sclerotinia sclerotiorum: inhibitory activity
[3]
  concentrations at which inhibition of S. trifoliorum was not observed: below 15.2 micromolar
  inhibition of Sclerotinia isolates (S. trifoliorum): inhibited strongly
  inhibition of Sclerotinia trifoliorum: inhibitory activity
[4]
  concentration down to which Fusarium moniliforme was noticeably inhibited: 3.8 µM
  inhibition of Fusarium moniliforme: slightly inhibited; also recorded: not completely inhibited
[5]
  inhibition of Aspergillus flavus: slightly inhibited; also recorded: slight inhibition
[6]; at 3 μM, yet another study
  effect on A. longipes: not affected
[6]; other studies, most sensitive of the fungi
  concentration showing noticeable inhibition of Alternaria longipes: 1.9 µM
[7]
  CMIII activity in the presence of plant cell extracts: reduced substantially
